# What was measured:
# Type in all cases: biochemical
# JNK3 [1] = molecular target: T1, JNK3 (Homo sapiens (Human), UniProt P53779); test: Measurement of JNK3 enzyme activity (33P-ATP filter-binding); settings: human JNK3, ATP 10 μM, ATF2 3 μM
# Method: The changes in JNK3 enzyme activity resulting from being treated with the inventive imidazole derivative (Formula 1) shown in a following Table 1 were identified through IC50.
# First of all, after a substrate was inserted into a prepared base reaction buffer solution (20 mM Hepes ([…]), 10 mM MgCl2, 1 mM EGTA, 0.02% Brij35, 0.02 mg/ml BSA, 0.1 mM Na3VO4, 2 mM DTT, 1% DMSO), a human JNK3 enzyme was added into a prepared substrate solution and then mixed together. As the substrate, ATP (10 μM) and ATF2 (3 μM) were used, among which the ATP was also used as a common substrate. Then, compounds of Examples 1-18 and 25-36, which were dissolved in 100% DMSO, were inserted into an enzyme reaction solution, and then cultured at room temperature for 20 minutes. Then, ^33P-ATP was inserted into the above reaction mixture solution to initiate a reaction, then cultured at room temperature for 2 hours, and then an enzyme activity was detected by means of a filter-binding method.
# Particularly, after each 25 μl of the resulting solution was slowly spotted on P81 paper, it was inserted into a scintillation vial, and washed with 0.75% phosphoric acid four times for 10 minutes each, and with acetone once for 5 minutes. 5 ml of scintillation cocktail was inserted into the above scintillation vial and a resulting signal was read by means of a scintillation counter.
# IC50 values of compounds of Examples 1-18 and 25-36 with regard to JNK3 enzyme activity were shown in a following Table 2.
# AKT1 = AKT1 (Homo sapiens (Human), UniProt P31749); test: Kinase profiling service (Reaction Biology Corp.); settings: compound 10 μM
# Method: (§1) An inhibitory activity of the compound (10 μM) of Example 34 against various protein kinases was measured by means of a kinase profiling service (ICso profiler express) of Reaction Biology Corp., wherein ICso, a concentration at which JNK enzyme activity was inhibited 50%, was also measured by sequentially reducing a concentration of the compound.
# IGF1R = IGF1R (Homo sapiens (Human), UniProt P08069); test: Kinase profiling service (Reaction Biology Corp.); settings: compound 10 μM
# Method: as §1
# SYK = SYK (Homo sapiens (Human), UniProt P43405); test: Kinase profiling service (Reaction Biology Corp.); settings: compound 10 μM
# Method: as §1
# JAK3 = JAK3 (Homo sapiens (Human), UniProt P52333); test: Kinase profiling service (Reaction Biology Corp.); settings: compound 10 μM
# Method: as §1
# CDK1/cyclin B = CDK1/cyclin B (Homo sapiens (Human), UniProt P06493); test: Kinase profiling service (Reaction Biology Corp.); settings: compound 10 μM
# Method: as §1
# mTOR/FRAP1 = mTOR/FRAP1 (Homo sapiens (Human), UniProt P42345); test: Kinase profiling service (Reaction Biology Corp.); settings: compound 10 μM
# Method: as §1
# LCK = LCK (Homo sapiens (Human), UniProt P06239); test: Kinase profiling service (Reaction Biology Corp.); settings: compound 10 μM
# Sequence of LCK (P06239 whole entry): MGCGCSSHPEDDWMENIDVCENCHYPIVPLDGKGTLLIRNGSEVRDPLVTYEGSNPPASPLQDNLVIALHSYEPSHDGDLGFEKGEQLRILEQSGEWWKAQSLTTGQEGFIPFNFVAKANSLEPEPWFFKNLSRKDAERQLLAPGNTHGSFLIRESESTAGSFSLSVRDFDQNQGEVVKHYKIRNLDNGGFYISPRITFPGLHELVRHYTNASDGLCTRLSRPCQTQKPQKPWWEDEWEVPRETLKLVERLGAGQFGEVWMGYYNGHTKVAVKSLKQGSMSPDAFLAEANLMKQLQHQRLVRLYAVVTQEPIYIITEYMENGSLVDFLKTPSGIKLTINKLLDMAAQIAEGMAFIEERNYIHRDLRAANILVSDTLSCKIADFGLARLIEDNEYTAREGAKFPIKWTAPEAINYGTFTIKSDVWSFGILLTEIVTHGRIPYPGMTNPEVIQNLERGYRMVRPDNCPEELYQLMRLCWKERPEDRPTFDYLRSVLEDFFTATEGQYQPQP
# Method: as §1
# CDK2/cyclin E = CDK2/cyclin E (Homo sapiens (Human), UniProt P24941); test: Kinase profiling service (Reaction Biology Corp.); settings: compound 10 μM
# Method: as §1
# MLK1/MAP3K9 = MLK1/MAP3K9 (Homo sapiens (Human), UniProt P80192); test: Kinase profiling service (Reaction Biology Corp.); settings: compound 10 μM
# Method: as §1
# c-MET = c-MET (Homo sapiens (Human), UniProt P08581); test: Kinase profiling service (Reaction Biology Corp.); settings: compound 10 μM
# Method: as §1
# ROS/ROS1 = ROS/ROS1 (Homo sapiens (Human), UniProt P08922); test: Kinase profiling service (Reaction Biology Corp.); settings: compound 10 μM
# Method: as §1
# JNK3 [2] = molecular target: T1, JNK3; test: Kinase profiling service (Reaction Biology Corp.); settings: compound 10 μM
# Method: as §1
# ABL1 = ABL1 (Homo sapiens (Human), UniProt P00519); test: Kinase profiling service (Reaction Biology Corp.); settings: compound 10 μM
# Sequence of ABL1 (P00519 whole entry): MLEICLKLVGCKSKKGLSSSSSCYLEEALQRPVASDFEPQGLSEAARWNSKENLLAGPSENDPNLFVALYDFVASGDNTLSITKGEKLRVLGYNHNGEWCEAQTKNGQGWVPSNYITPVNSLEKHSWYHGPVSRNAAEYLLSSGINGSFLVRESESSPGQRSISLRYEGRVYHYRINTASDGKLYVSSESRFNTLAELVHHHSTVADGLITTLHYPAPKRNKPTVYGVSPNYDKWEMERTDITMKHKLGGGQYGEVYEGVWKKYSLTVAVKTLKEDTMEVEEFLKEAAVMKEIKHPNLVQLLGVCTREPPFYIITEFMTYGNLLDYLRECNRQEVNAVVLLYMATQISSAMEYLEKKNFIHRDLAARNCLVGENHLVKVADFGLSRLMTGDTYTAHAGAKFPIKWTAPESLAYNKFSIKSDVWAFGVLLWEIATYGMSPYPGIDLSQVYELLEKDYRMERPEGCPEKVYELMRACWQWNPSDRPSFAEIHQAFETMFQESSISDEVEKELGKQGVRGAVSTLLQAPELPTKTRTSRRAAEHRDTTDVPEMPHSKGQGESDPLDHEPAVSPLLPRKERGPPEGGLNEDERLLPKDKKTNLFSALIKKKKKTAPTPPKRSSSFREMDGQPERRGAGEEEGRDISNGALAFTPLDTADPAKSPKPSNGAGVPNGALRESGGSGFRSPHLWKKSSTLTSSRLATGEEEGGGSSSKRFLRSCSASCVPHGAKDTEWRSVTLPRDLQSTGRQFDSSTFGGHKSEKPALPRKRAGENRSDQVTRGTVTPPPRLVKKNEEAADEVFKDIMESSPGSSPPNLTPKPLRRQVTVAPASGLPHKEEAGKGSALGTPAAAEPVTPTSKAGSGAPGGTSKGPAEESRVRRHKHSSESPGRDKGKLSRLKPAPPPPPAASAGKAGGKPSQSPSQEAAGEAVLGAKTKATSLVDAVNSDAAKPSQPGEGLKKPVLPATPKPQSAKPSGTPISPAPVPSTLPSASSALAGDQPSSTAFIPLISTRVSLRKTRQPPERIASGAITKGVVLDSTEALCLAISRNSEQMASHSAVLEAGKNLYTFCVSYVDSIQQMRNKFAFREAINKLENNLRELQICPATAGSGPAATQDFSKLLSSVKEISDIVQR
# Method: as §1
# LYN = LYN (Homo sapiens (Human), UniProt P07948); test: Kinase profiling service (Reaction Biology Corp.); settings: compound 10 μM
# Method: as §1
# c-Src = c-Src (Homo sapiens (Human), UniProt P12931); test: Kinase profiling service (Reaction Biology Corp.); settings: compound 10 μM
# Method: as §1
# MEK1 = MEK1 (Homo sapiens (Human), UniProt Q02750); test: Kinase profiling service (Reaction Biology Corp.); settings: compound 10 μM
# Method: as §1
# FGFR3 = FGFR3 (Homo sapiens (Human), UniProt P22607); test: Kinase profiling service (Reaction Biology Corp.); settings: compound 10 μM
# Method: as §1
# c-Kit = c-Kit (Homo sapiens (Human), UniProt P10721); test: Kinase profiling service (Reaction Biology Corp.); settings: compound 10 μM
# Method: as §1
# JNK2 = JNK2 (Homo sapiens (Human), UniProt P45984); test: Kinase profiling service (Reaction Biology Corp.); settings: compound 10 μM
# Method: as §1
# PLK1 = PLK1 (Homo sapiens (Human), UniProt P53350); test: Kinase profiling service (Reaction Biology Corp.); settings: compound 10 μM
# Method: as §1
# FMS = FMS (Homo sapiens (Human), UniProt P07333); test: Kinase profiling service (Reaction Biology Corp.); settings: compound 10 μM
# Method: as §1
# ALK = ALK (Homo sapiens (Human), UniProt Q9UM73); test: Kinase profiling service (Reaction Biology Corp.); settings: compound 10 μM
# Sequence of ALK (Q9UM73 19-1620): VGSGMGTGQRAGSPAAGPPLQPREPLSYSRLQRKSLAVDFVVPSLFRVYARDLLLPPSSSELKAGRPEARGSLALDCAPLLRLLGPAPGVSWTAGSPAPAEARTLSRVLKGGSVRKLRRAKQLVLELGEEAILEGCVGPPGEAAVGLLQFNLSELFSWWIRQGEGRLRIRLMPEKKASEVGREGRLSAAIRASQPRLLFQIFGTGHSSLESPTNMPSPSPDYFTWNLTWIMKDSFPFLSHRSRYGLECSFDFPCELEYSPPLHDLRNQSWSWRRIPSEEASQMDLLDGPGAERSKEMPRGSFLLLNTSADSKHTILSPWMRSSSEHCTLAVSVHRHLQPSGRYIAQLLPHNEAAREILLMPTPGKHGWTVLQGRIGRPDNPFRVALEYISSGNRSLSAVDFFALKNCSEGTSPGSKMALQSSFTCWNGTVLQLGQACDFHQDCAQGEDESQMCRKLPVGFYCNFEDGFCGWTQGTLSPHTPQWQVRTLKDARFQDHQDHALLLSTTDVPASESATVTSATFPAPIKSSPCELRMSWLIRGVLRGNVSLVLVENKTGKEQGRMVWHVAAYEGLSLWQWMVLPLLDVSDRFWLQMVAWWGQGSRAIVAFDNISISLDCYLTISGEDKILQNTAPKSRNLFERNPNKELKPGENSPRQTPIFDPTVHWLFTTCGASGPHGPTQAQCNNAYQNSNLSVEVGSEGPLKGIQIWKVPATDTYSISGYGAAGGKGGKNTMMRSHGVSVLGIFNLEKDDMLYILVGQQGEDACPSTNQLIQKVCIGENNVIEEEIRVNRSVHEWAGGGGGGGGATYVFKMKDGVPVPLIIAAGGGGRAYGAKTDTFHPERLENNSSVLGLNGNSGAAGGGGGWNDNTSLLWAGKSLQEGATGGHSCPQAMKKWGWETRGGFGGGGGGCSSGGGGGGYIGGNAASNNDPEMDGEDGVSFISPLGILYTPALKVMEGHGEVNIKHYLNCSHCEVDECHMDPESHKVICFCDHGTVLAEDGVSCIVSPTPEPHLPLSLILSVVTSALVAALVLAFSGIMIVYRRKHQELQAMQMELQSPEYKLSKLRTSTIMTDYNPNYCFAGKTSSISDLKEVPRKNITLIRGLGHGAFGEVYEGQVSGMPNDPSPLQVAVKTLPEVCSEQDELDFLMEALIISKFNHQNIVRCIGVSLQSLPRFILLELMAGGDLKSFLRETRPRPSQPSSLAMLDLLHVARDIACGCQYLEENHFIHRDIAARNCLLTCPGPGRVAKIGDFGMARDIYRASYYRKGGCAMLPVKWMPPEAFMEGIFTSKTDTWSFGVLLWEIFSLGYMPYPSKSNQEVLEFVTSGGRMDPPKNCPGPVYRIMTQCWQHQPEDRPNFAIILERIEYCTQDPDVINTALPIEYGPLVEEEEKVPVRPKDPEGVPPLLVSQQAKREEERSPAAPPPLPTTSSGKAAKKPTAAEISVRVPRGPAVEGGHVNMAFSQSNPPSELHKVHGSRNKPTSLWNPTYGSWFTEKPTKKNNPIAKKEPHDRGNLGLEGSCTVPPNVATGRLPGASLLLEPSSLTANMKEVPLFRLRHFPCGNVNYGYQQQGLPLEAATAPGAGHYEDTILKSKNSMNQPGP
# Method: as §1
# FYN = FYN (Homo sapiens (Human), UniProt P06241); test: Kinase profiling service (Reaction Biology Corp.); settings: compound 10 μM
# Method: as §1
# LRRK2 = LRRK2 (Homo sapiens (Human), UniProt Q5S007); test: Kinase profiling service (Reaction Biology Corp.); settings: compound 10 μM
# Method: as §1
# KDR/VEGFR2 = KDR/VEGFR2 (Homo sapiens (Human), UniProt P35968); test: Kinase profiling service (Reaction Biology Corp.); settings: compound 10 μM
# Sequence of KDR/VEGFR2 (P35968 20-1356): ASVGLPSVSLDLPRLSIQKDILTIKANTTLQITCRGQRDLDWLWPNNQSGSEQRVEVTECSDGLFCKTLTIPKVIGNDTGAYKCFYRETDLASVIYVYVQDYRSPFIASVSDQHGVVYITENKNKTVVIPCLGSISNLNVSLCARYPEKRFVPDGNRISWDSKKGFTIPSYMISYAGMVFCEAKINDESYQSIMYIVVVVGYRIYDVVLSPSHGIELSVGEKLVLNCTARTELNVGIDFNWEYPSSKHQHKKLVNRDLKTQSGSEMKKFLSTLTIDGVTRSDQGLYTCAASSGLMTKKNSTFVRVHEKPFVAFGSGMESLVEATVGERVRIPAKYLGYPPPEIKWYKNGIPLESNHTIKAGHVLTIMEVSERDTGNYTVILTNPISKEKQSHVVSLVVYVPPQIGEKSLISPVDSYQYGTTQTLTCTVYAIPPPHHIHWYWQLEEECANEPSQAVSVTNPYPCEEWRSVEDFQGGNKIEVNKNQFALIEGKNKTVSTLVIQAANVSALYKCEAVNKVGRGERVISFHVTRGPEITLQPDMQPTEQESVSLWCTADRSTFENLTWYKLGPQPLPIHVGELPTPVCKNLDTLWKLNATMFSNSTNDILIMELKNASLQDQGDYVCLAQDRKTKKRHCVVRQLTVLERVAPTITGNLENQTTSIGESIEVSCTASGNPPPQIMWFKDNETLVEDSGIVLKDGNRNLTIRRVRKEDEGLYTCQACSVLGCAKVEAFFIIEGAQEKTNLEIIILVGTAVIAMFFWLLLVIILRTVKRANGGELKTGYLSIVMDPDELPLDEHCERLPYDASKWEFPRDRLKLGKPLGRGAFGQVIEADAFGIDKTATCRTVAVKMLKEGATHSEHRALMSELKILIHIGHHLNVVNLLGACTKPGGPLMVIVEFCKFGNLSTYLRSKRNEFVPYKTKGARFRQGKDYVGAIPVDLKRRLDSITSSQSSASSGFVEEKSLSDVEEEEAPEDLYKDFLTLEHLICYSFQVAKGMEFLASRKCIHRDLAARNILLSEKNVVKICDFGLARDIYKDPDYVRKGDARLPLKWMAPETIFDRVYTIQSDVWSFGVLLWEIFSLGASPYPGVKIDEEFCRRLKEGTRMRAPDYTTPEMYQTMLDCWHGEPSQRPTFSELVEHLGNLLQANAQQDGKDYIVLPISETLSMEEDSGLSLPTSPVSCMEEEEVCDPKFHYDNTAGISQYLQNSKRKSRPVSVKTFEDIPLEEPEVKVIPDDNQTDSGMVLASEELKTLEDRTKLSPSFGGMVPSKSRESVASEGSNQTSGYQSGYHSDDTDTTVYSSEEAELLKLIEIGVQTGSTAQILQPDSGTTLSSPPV
# Method: as §1
# [3] = Data 1 and Data 2, read-out: % Enzyme Activity (relative to DMSO controls)
# T1 sequence (P53779 whole entry): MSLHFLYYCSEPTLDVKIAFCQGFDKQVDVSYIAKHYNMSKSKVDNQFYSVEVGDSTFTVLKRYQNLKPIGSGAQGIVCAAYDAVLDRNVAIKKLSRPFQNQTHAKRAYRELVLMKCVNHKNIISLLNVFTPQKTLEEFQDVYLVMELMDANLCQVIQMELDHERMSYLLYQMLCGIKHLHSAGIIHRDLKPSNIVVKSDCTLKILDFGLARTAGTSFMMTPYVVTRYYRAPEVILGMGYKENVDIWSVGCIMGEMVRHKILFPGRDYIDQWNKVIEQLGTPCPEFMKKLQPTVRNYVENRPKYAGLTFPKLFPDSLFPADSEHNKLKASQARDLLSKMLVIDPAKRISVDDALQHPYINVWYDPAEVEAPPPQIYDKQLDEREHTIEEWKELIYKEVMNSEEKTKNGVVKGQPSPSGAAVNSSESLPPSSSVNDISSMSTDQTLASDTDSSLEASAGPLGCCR
compound,measurement,setting,value
"N#CCc1cnc(-c2ccc3ccccc3c2)n1-c1ccnc(NC2CCCN(C(=O)C3CC3)C2)n1 (stereo not drawn) [Example 34, 2-(1-(2-(1-(cyclopropanecarbonyl)piperidine-3-ylamino)pyrimidine-4-yl)-2-(naphthalene-2-yl)-1H-imidazole-5-yl)acetonitrile]",IC50,JNK3 [1],< 0.03 µM
same,% Enzyme Activity (relative to DMSO controls),AKT1; Data 1 and Data 2,99.04%
same,remaining activity at 10 µM,AKT1; [3],103%
same,% Enzyme Activity (relative to DMSO controls),IGF1R; Data 1 and Data 2,92.45%
same,remaining activity at 10 µM,IGF1R; [3],93.1%
same,% Enzyme Activity (relative to DMSO controls),SYK; Data 1 and Data 2,97.43%
same,remaining activity at 10 µM,SYK; [3],98.1%
same,% Enzyme Activity (relative to DMSO controls),JAK3; Data 1 and Data 2,99.82%
same,remaining activity at 10 µM,JAK3; [3],101%
same,% Enzyme Activity (relative to DMSO controls),CDK1/cyclin B; Data 1 and Data 2,90.33%
same,remaining activity at 10 µM,CDK1/cyclin B; [3],90.7%
same,% Enzyme Activity (relative to DMSO controls),mTOR/FRAP1; Data 1 and Data 2,101.65%
same,remaining activity at 10 µM,mTOR/FRAP1; [3],105%
same,% Enzyme Activity (relative to DMSO controls),LCK; Data 1 and Data 2,95.50%
same,remaining activity at 10 µM,LCK; [3],95.8%
same,% Enzyme Activity (relative to DMSO controls),CDK2/cyclin E; Data 1 and Data 2,95.83%
same,remaining activity at 10 µM,CDK2/cyclin E; [3],97.5%
same,% Enzyme Activity (relative to DMSO controls),MLK1/MAP3K9; Data 1 and Data 2,93.90%
same,remaining activity at 10 µM,MLK1/MAP3K9; [3],95.7%
same,% Enzyme Activity (relative to DMSO controls),c-MET; Data 1 and Data 2,90.72%
same,remaining activity at 10 µM,c-MET; [3],105%
same,% Enzyme Activity (relative to DMSO controls),ROS/ROS1; Data 1 and Data 2,95.23%
same,remaining activity at 10 µM,ROS/ROS1; [3],97.8%
same,% Enzyme Activity (relative to DMSO controls),JNK3 [2]; Data 1 and Data 2,4.81%
same,remaining activity at 10 µM,JNK3 [2]; [3],5.04%
same,% Enzyme Activity (relative to DMSO controls),ABL1; Data 1 and Data 2,94.12%
same,remaining activity at 10 µM,ABL1; [3],95.3%
same,% Enzyme Activity (relative to DMSO controls),LYN; Data 1 and Data 2,85.66%
same,remaining activity at 10 µM,LYN; [3],86.6%
same,% Enzyme Activity (relative to DMSO controls),c-Src; Data 1 and Data 2,92.54%
same,remaining activity at 10 µM,c-Src; [3],94%
same,% Enzyme Activity (relative to DMSO controls),MEK1; Data 1 and Data 2,104.84%
same,remaining activity at 10 µM,MEK1; [3],105%
same,% Enzyme Activity (relative to DMSO controls),FGFR3; Data 1 and Data 2,91.29%
same,remaining activity at 10 µM,FGFR3; [3],91.4%
same,% Enzyme Activity (relative to DMSO controls),c-Kit; Data 1 and Data 2,92.65%
same,remaining activity at 10 µM,c-Kit; [3],93.4%
same,% Enzyme Activity (relative to DMSO controls),JNK2; Data 1 and Data 2,1.40%
same,remaining activity at 10 µM,JNK2; [3],1.41%
same,% Enzyme Activity (relative to DMSO controls),PLK1; Data 1 and Data 2,97.02%
same,remaining activity at 10 µM,PLK1; [3],98.8%
same,% Enzyme Activity (relative to DMSO controls),FMS; Data 1 and Data 2,93.11%
same,remaining activity at 10 µM,FMS; [3],93.7%
same,% Enzyme Activity (relative to DMSO controls),ALK; Data 1 and Data 2,97.85%
same,remaining activity at 10 µM,ALK; [3],98%
same,% Enzyme Activity (relative to DMSO controls),FYN; Data 1 and Data 2,94.86%
same,remaining activity at 10 µM,FYN; [3],95.6%
same,% Enzyme Activity (relative to DMSO controls),LRRK2; Data 1 and Data 2,95.95%
same,remaining activity at 10 µM,LRRK2; [3],96.3%
same,% Enzyme Activity (relative to DMSO controls),KDR/VEGFR2; Data 1 and Data 2,73.81%
same,remaining activity at 10 µM,KDR/VEGFR2; [3],74.1%

# — patent publication US10301291B2, “Imidazole derivative having JNK inhibitory activity and use thereof” (SAMJIN PHARMACEUTICAL CO., LTD., priority 2016, dated 2019)
